Test system: internal mitochondrial proteases
Assay: MALDI-TOF-TOF sequence confirmation of MTS cleavage
Design: species or system Kluyveromyces lactis
Details: for Peptide detected: RFP sequence (1-9) VSKGEELIK, position 1-9; for cleavage of the MTS: enriched sample, gel piece, trypsin digestion
Description: The enriched sample was analysed on a 15% SDS-PAGE gel and stained with Coomassie blue. After de-staining the gel a piece of the SDS-PAGE gel was cut at the position where the RFP was expected. This was washed extensively in water and analysed by MALDI-TOF-TOF analysis after trypsin digestion. […]

| Substance | Peptide detected | cleavage of the MTS |
| --- | --- | --- |
| MIS-XIII: synthetic mitochondrial targeting sequence (MTS), SEQ ID NO: 3, containing the core RRRA (RAARRRAARR) | VSKGEELIK | cleavage was correct |
| MIS-XIV: synthetic mitochondrial targeting sequence (MTS), SEQ ID NO: 4, containing the core RRRA (RARRRARR) | VSKGEELIK | cleavage was correct |
| MIS-VII: synthetic mitochondrial targeting sequence (MTS), SEQ ID NO: 2, containing the core RRRA (RLRRRAARSLARSAARR) | VSKGEELIK | cleavage was correct |
